US20130178441A1, “Methods for Extending Progression-Free Survival using 10-Propargyl-10-Deazaaminopterin” (ALLOS THERAPEUTICS, INC., priority 2010, published 2013)

How the values were obtained:
[1] = system: patients with relapsed or refractory PTCL; assay: PROPEL analysis by treatment duration: treatment discontinuation and adverse events; type: in vivo, human
Protocol: (§1) The pivotal PROPEL study of pralatrexate (FOLOTYN®) in patients with relapsed or refractory PTCL reported a rapid response to treatment in a heavily pretreated patient population. The majority of patients (63% of responders) responded by their first assessment at 7 weeks (the end of cycle 1). The present analysis assessed if there were any unique characteristics of patients who were unable to complete the first cycle of therapy and to assess the outcomes of patients who received ≧1 or ≧2 cycles of pralatrexate. Pralatrexate, a folate analog targeting dihydrofolate reductase, was approved in the United States for treatment of relapsed or refractory PTCL based on the PROPEL study. Methods: In PROPEL, patients received 30 mg/m^2 pralatrexate once weekly for 6 weeks in successive 7-week cycles. […] Cycle completion was determined receiving ≧1 dose in the following cycle. Thus, the subgroup of patients who completed ≧1 (n=64) includes those patients who only completed 1 cycle+the 43 who completed ≧2 cycles of treatment. […] However, the patients not completing cycle lwere more likely to have the angioimmunoblastic subtype (20% vs 6%). Patients in each subgroup received a median of 3 prior treatment regimens.
The most frequent reasons for treatment discontinuation were similar for patients with <1 cycle, ≧1 cycle or ≧2 cycles, although the incidence of discontinuation was lower for patients with ≧1 or 2 cycles. […] However, the percentage of patients in whom mucosal inflammation led to treatment discontinuation was similar (<1: 4%; ≧1: 6%; ≧2: 2%). […] Patients who were unable to complete cycle 1 were more likely to have quickly progressed through multiple lines of therapy and were more likely to have the angioimmunoblastic subtype, which a subtype is thought to have a different biology than other PTCL subtypes and lower chemosensitivity. Further analysis of this subtype is warranted.

[2] = system: relapsed or refractory peripheral T-cell lymphoma (PTCL); assay: PROPEL (PDX-008) pivotal trial of pralatrexate, overall population (N=109); type: in vivo, human
Excerpt: Pralatrexate was approved under the provisions of accelerated approval is the United States for the treatment of patients with relapsed/refractory PTCL based on the results of the pivotal trial PROPEL (Pralatrexate in Patients with Relapsed Or Refractory Peripheral T-cell Lymphoma). The primary endpoint, objective response rate (ORR) by independent central review using International Workshop Criteria, was 29% (32/109), including 11% complete response/complete response unconfirmed (CR/CRu) with a median duration of response of 10.1 months. The ORR by investigator assessment was 39% (43/109), including 18% CR/CRu.
The prognosis of aggressive PTCL is dismal. Investigators have developed salvage regimens attempting to improve outcomes for patients with relapsed or refractory disease. One such regimen frequently used is ifosfamide, carboplatin, and etoposide (ICE) or ICE-based regimens (eg, and rituximab-ICE [RICE] and dexamethasome-ICE [DICE]). These regimens can have response rates approaching 70% and patients may proceed to a stem cell transplant, yet most patients tend to relapse quickly (Horwitz et al Blood 2005; 106:a2679). Thus, optimal approaches for patients with relapsed or refractory disease are needed, and agents based on a unique mechanism of action warrant study. This analysis was conducted to determine if pralatrexate offered a beneficial treatment option for patients after treatment with an ICE/RICE/DICE regimen. Methods: Pralatrexate was administered via intravenous push over 3 to 5 minutes at 30 mg/m^2/week for six weeks in 7-week cycles with concurrent 1 mg vitamin B12 intramuscular every 8 to 10 weeks and folic acid 1.0 to 1.25 mg by mouth once daily. 109 patients were treated with pralatrexate in the PROPEL study. All patients in the PROPEL study had received at least 1 prior therapy for PTCL. A subset of 20 patients had received ICE, RICE or DICE at some point prior to treatment with pralatrexate. The efficacy in these patients was compared to the remainder of the patient population who had not received ICE/RICE/DICE as a therapy for PTCL prior to pralatrexate (n=89). The patient population that previously received an ICE-based regimen was heavily pretreated with am edian of 3 prior systemic regimens (range, 2-11). The median age was 45 years, a younger patient population compared with the overall PROPEL population (59 years).
as §1

C#CCC(Cc1cnc2nc(N)nc(N)c2n1)c1ccc(C(=O)N[C@@H](CCC(=O)O)C(=O)O)cc1 (mixture of isomers) [Pralatrexate, (2S)-2-[[4-[(1RS)-1-[(2,4-diaminopteridin-6-yl)methyl]but-3-ynyl]benzoyl]amino]pentanedioic acid]
Additional patients with dose reductions in cycle 2 due to mucosal inflammation who continued treatment ([1]; 4 patients): 9%
Discontinued due to adverse events (AEs) ([1]; 45 patients who did not complete cycle 1): 29%
Incidence of Grade 3-4 anemia ([1]; <1 cycle): 27%
Incidence of Grade 3-4 mucosal inflammation ([1]; <1 cycle): 24%
Incidence of Grade 3-4 thrombocytopenia ([1]; <1 cycle): 40%
Patients in whom mucosal inflammation led to treatment discontinuation ([1]; <1 cycle): 4%
Patients with dose reductions due to mucosal inflammation in cycle 1 who continued treatment ([1]; Eight patients): 13%
Patients with a response to pralatrexate ([1]; of the 4 patients with dose reductions in cycle 2 due to mucosal inflammation): 3 patients
Patients with a response to pralatrexate ([1]; of the 8 patients with dose reductions due to mucosal inflammation in cycle 1): 4 patients
Incidence of Grade 3-4 anemia ([1]; ≧1 cycle): 13%
Incidence of Grade 3-4 mucosal inflammation ([1]; ≧1 cycle): 19%
Incidence of Grade 3-4 thrombocytopenia ([1]; ≧1 cycle): 28%
Patients in whom mucosal inflammation led to treatment discontinuation ([1]; ≧1 cycle): 6%
Incidence of Grade 3-4 anemia ([1]; ≧2 cycles): 9%
Incidence of Grade 3-4 mucosal inflammation ([1]; ≧2 cycles): 12%
Incidence of Grade 3-4 thrombocytopenia ([1]; ≧2 cycles): 21%
Patients in whom mucosal inflammation led to treatment discontinuation ([1]; ≧2 cycles): 2%
Responders who responded by their first assessment at 7 weeks (end of cycle 1) ([2]; % of responders): 63%
CR/CRu (complete response/complete response unconfirmed) by independent central review ([2]; all 109 patients): 11%
CR/CRu by investigator assessment ([2]; all 109 patients): 18%
Median duration of PFS by central review ([2]; all 109 patients): 3.5 months
Median duration of PFS by investigator assessment ([2]; all 109 patients): 4.0 months
Median duration of response by central review ([2]; all 109 patients): 10.1 months
Median duration of response by investigator assessment ([2]; all 109 patients): 8.1 months
ORR by investigator assessment ([2]; all 109 patients): 39%
Objective response rate (ORR) by independent central review using International Workshop Criteria ([2]; all 109 patients): 29%
